In article PMC8780828 (Viruses, 2021):
≈ marks a conversion by molar mass, not a printed value. Like-named read-outs stand apart in the source and are kept apart here.

How the values were obtained:
in vivo = conditions: female, Sprague Dawley, rat; for MRT inf: MRT0-inf_obs; for half-life: t1/2
[1] = system: pseudovirus NL4-3ΔEnv-NanoLuc/SARS-CoV-2; assay: organism not typed; format: cell-based; conditions: A549-ACE2; n=3
[2] = rat, in vivo
CYP2C9 [3] = biological target: T1, CYP2C9 (Homo sapiens, UniProt P11712); assay: biochemical
T1 sequence (P11712 whole entry): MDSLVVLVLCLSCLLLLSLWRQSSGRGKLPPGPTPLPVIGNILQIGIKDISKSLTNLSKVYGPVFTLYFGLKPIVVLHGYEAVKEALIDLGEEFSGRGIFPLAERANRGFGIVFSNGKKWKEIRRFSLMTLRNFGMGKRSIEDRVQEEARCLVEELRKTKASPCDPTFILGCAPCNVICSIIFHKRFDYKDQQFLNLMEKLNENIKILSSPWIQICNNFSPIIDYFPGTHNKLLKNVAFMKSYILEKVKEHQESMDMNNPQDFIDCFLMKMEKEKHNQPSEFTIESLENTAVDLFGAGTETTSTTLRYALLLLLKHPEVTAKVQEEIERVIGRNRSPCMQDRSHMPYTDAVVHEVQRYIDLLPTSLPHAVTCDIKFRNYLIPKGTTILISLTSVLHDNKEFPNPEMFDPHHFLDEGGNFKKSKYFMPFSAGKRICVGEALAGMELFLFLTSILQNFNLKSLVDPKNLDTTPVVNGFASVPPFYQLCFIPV

in vitro [4] = conditions: both, human, microsomes, pH 7.4
CYP2C8 = CYP2C8 (Homo sapiens, UniProt P10632); assay: biochemical
Chain of CYP2C8 (P10632 whole entry): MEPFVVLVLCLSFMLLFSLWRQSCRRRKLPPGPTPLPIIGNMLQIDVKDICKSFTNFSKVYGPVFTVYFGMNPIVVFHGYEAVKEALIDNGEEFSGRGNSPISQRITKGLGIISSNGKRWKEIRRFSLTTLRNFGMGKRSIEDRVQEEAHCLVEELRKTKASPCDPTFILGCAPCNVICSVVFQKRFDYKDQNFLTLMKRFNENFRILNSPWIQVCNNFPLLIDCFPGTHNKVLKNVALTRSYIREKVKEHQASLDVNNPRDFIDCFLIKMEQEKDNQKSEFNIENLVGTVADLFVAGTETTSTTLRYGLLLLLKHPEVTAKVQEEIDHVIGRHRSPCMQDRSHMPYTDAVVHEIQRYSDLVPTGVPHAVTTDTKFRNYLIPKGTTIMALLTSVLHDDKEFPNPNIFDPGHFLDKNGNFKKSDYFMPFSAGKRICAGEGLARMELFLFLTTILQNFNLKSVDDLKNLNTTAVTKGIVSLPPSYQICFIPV

P-gp = assay: in vitro; conditions: human
[5] = system: SARS-CoV-2 (US_WA-1/2020); format: cell-based
β-lactamase = format: biochemical
CYP2C19 [6] = biological target: T2, CYP2C19 (Homo sapiens, UniProt P33261); assay: biochemical
T2 sequence (P33261 whole entry): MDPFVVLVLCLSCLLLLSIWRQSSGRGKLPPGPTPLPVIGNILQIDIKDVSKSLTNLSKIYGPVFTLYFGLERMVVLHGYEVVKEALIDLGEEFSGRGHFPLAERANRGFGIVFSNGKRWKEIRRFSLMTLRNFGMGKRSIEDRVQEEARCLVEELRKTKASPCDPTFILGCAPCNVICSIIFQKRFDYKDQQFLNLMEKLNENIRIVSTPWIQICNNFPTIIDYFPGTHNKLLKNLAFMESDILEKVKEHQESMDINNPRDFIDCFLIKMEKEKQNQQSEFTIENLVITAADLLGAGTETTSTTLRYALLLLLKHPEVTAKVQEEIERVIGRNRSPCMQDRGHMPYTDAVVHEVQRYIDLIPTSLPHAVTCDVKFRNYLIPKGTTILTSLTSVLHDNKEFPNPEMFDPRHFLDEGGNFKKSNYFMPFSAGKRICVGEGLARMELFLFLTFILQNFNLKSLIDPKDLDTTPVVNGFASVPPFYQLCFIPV

[7] = system: NL4-3ΔEnv-NanoLuc/SARS-CoV-2; assay: organism not typed; format: cell-based
[8] = system: pseudovirus NL4-3ΔEnv-NanoLuc/SARS-CoV-2; assay: organism not typed; format: cell-based; conditions: HT-1080; n=3
CYP2C9 [9] = biological target: T1, CYP2C9; assay: in vitro; conditions: microsomes, pH 7.4
pseudovirus SARS-CoV-2 = assay: organism not typed; format: cell-based
[10] = system: pseudovirus NL4-3ΔEnv-NanoLuc/MERS-CoV; assay: microbe, parasite or virus in culture; format: cell-based; conditions: Middle East respiratory syndrome-related coronavirus, MRC5; n=3; read-out: IC50
CYP2D6 = CYP2D6 (Homo sapiens, UniProt P10635); assay: in vitro; conditions: microsomes, pH 7.4
Chain of CYP2D6 (P10635 whole entry): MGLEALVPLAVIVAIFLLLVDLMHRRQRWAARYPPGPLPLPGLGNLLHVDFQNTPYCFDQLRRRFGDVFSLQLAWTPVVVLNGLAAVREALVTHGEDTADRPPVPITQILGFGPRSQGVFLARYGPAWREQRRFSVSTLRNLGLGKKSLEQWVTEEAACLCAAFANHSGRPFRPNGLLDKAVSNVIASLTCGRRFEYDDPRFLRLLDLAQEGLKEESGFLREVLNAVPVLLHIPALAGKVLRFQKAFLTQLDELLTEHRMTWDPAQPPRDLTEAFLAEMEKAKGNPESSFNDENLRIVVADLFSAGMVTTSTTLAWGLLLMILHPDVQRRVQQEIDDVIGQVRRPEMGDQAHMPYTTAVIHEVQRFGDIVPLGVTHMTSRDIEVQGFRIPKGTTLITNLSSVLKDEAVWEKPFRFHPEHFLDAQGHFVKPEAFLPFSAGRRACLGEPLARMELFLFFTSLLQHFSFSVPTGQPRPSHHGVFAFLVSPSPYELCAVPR

[11] = biological target: malate dehydrogenase (MDH); format: biochemical
CYP2B6 [12] = biological target: T3, CYP2B6 (Homo sapiens, UniProt P20813); assay: biochemical
T3 sequence (P20813 whole entry): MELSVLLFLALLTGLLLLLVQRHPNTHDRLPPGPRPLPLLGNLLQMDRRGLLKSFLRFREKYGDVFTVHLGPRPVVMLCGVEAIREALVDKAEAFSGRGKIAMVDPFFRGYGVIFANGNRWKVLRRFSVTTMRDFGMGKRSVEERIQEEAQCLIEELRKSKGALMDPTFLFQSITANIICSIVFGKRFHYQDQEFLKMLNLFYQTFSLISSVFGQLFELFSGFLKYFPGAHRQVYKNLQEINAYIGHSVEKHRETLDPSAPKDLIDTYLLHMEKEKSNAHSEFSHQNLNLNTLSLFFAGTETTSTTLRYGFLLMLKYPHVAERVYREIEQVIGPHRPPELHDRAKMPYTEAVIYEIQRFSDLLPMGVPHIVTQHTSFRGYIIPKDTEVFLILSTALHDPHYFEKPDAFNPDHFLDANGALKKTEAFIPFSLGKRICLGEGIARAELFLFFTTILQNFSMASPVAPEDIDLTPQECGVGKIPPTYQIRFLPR

[13] = system: pseudovirus NL4-3ΔEnv-NanoLuc/SARS-CoV; assay: microbe, parasite or virus in culture; format: cell-based; conditions: Severe acute respiratory syndrome coronavirus, HT-1080; n=3; read-out: IC50
CYP1A2 = CYP1A2 (Homo sapiens, UniProt P05177); assay: biochemical
Chain of CYP1A2 (P05177 whole entry): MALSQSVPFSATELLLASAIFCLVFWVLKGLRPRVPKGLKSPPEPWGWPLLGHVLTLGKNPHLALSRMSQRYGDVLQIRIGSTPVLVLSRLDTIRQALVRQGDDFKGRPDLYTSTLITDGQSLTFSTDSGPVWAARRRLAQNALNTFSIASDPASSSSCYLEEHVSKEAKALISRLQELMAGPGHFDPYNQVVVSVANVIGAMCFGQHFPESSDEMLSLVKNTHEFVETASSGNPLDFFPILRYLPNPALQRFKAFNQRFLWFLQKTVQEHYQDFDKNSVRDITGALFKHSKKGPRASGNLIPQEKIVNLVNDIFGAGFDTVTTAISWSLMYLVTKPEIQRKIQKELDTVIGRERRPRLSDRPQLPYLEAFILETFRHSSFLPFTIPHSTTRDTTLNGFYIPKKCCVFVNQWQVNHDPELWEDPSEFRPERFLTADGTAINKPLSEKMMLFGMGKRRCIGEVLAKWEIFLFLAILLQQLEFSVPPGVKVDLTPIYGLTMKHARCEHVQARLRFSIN

[14] = biological target: SARS-CoV-2 spike S1 subunit protein (Severe acute respiratory syndrome coronavirus 2, UniProt P0DTC2); format: binding
[15] = system: pseudovirus NL4-3ΔEnv-NanoLuc/SARS-CoV-2; assay: SARS-CoV-2 pseudovirus assay with pre-treated 293T/ACE2 cells; format: cell-based; conditions: 293T/ACE2 cells pre-treated with compound 30 min before infection
[16] = system: pseudovirus NL4-3ΔEnv-NanoLuc/MERS-CoV; assay: microbe, parasite or virus in culture; format: cell-based; conditions: Middle East respiratory syndrome-related coronavirus, Huh-7; n=3; read-out: IC50
CYP2C19 [17] = biological target: T2, CYP2C19; assay: in vitro; conditions: microsomes, pH 7.4
in vitro [18] = conditions: both, human, plasma
CYP2B6 [19] = biological target: T3, CYP2B6; assay: in vitro; conditions: microsomes, pH 7.4
[20] = female, Sprague Dawley, iv, 5 mg/kg

Q: What does the source list for `O=C(O)c1cc(-c2ccc(/C=C3\SC(=S)N(CCc4ccccc4)C3=O)o2)ccc1Cl` [NBCoV1]?
A: bioavailability (in vivo; F% (bioavailability)): 20%; C0 (in vivo; iv, 5 mg/kg): 7.41 µg/mL; Tmax (in vivo; iv, 5 mg/kg): 0.25 h; Cmax (in vivo; iv, 5 mg/kg): 7.82 µg/mL; MRT inf (in vivo; iv, 5 mg/kg): 4.02 h; half-life (in vivo; iv, 5 mg/kg): 3.57 h; Tmax (in vivo; po, 10 mg/kg): 2 h; Cmax (in vivo; po, 10 mg/kg): 1.5 µg/mL; MRT inf (in vivo; po, 10 mg/kg): 14 h; half-life (in vivo; po, 10 mg/kg): 11.3 h; IC50 [1]: 0.0636 ± 0.0046 µM; F% (bioavailability) ([2]; female, Sprague Dawley): 20.1%; CLobs [2, 20]: 0.00013 (mg/kg)/(ng/mL)/h; Vss_obs [2, 20]: 0.00053 (mg/kg)/(ng/mL); AUC0-t ([2]; iv, 5 mg/kg): 37,515.91 ng/mL ∗ h; AUC0-t ([2]; po, 10 mg/kg): 12,023.00 ng/mL ∗ h; Vz/F_obs ([2]; po, 10 mg/kg): 0.01078 (mg/kg)/(ng/mL); IC50 (CYP2C9 [3]): 5.01 µM; half-life (in vitro [4]): 1.87 h; microsomal CLint (in vitro [4]): 12.4 µL/min/mg; remaining at 0.25 h (in vitro [4]): 101%; remaining at 0.5 h (in vitro [4]): 80.5%; remaining at 1 h (in vitro [4]): 68.9%; remaining at 1.5 h (in vitro [4]): 69.5%; remaining at 2 h (in vitro [4]): 41.6%; IC50 (CYP2C8): 2.08 µM; Papp A→B (P-gp; Caco-2, pH 7.4, Caco-2 permeability (mean Papp) A-to-B, 5 µM): 169 nm/s; Papp B→A (P-gp; Caco-2, pH 7.4, Caco-2 permeability (mean Papp) B-to-A, 5 µM): 204 nm/s; Papp A→B (P-gp; Caco-2, pH 7.4, Papp A-to-B, single replicates (R1, R2)): 204 nm/s; Papp B→A (P-gp; Caco-2, pH 7.4, Papp B-to-A, single replicates (R1, R2)): 209 nm/s; IC100 [5]: > 10 µM; IC50 (β-lactamase): > 2 µM; IC50 (CYP2C19 [6]): 7.31 µM; IC100 (range of IC100 values detected in the three cell lines) [7]: 0.25 to 1 µM; IC50 ([7]; read-out: IC50 (range over the three cell lines)): 0.0323 to 0.0634 µM; IC50 [8]: 0.0323 ± 0.0046 µM; activity at 0.0137 µM (CYP2C9 [9]): 99.4%; activity at 0.0412 µM (CYP2C9 [9]): 98.2%; activity at 0.123 µM (CYP2C9 [9]): 97.2%; activity at 0.37 µM (CYP2C9 [9]): 95.1%; activity at 1.11 µM (CYP2C9 [9]): 85.1%; activity at 3.33 µM (CYP2C9 [9]): 59.9%; activity at 10 µM (CYP2C9 [9]): 29.8%; IC50 (pseudovirus SARS-CoV-2; 293T/ACE2): 0.05 µM; IC50 (pseudovirus SARS-CoV-2; read-out: IC50): 0.045 µM; IC50 [10]: 0.0765 ± 0.0003 µM; IC50 (CYP2D6): > 10 µM; activity at 0.0137 µM (CYP2D6): 95.8%; activity at 0.0412 µM (CYP2D6): 98.7%; activity at 0.123 µM (CYP2D6): 98.6%; activity at 0.37 µM (CYP2D6): 101%; activity at 1.11 µM (CYP2D6): 97%; activity at 3.33 µM (CYP2D6): 84.3%; activity at 10 µM (CYP2D6): 59.2%; IC50 [11]: > 2 µM; Caco-2 permeability (mean Papp) A-to-B (Caco-2 cells; 5 µM): 205 nm/s; Caco-2 permeability (mean Papp) B-to-A (Caco-2 cells; 5 µM): 236 nm/s; P-gp Substrate classification (Caco-2 cells; Caco-2): Negative; IC50 (CYP2B6 [12]): 3.19 µM; IC50 [13]: 0.039 ± 0.0082 µM; IC50 (CYP1A2): 7.4 µM; kd [14]: 0.0257 s⁻¹; IC50 [15]: > 2 µM; IC50 [16]: 0.095 ± 0.022 µM; solubility (physchem; pH 7.4, Solubility (AVG)): 4.72 µM (≈ 2.22 µg/mL); solubility (physchem; pH 7.4, Solubility, single replicates (R1, R2)): 4.35 µM (≈ 2.04 µg/mL); activity at 0.0137 µM (CYP2C19 [17]): 103%; activity at 0.0412 µM (CYP2C19 [17]): 110%; activity at 0.123 µM (CYP2C19 [17]): 101%; activity at 0.37 µM (CYP2C19 [17]): 102%; activity at 1.11 µM (CYP2C19 [17]): 92%; activity at 3.33 µM (CYP2C19 [17]): 70.8%; activity at 10 µM (CYP2C19 [17]): 40.7%; fraction unbound (in vitro [18]): < 0.005; fraction unbound (in vitro [18]; % Bound, single replicates (R1, R2)): < 0.005; activity at 0.0137 µM (CYP2B6 [19]): 97.5%; activity at 0.0412 µM (CYP2B6 [19]): 98.1%; activity at 0.123 µM (CYP2B6 [19]): 90.4%; activity at 0.37 µM (CYP2B6 [19]): 94.2%; activity at 1.11 µM (CYP2B6 [19]): 76.9%; activity at 3.33 µM (CYP2B6 [19]): 47%; activity at 10 µM (CYP2B6 [19]): 15.2%
